According to US9388389B2, “JFH-1 based HCV cell culture systems for NS5A of genotypes 1-7” (Hvidovre Hospital, priority 2009, dated 2016):
Where two headings read alike, the source gives them in different places.

Assays:
Assay in all cases: BMS-790052 treatment of infected cultures
[1] = tested on: J6/JFH1 with NS5A mutation I37V; assay type: cell-based, hepatitis C virus
JFH1(2a) NS5A (J6/JFH1) = assay type: cell-based; conditions: Hepatitis C virus; genotype 2a, isolate JFH1 NS5A (J6/JFH1); read-out: NS5A inhibitor, EC50 (nM), original
Method: (§1) 5×10^3 naïve Huh7.5 cells were plated per well in a poly-D-lysine coated 96-well plate (Nunc, Roskilde, D K) one day before infection with different recombinant viruses. Infectious doses were chosen to aim at 400-1000 single infected cells in non-treated wells at the end of the experiment. J6/JFH1 was included with two infectious doses (high and low) to control for impact of dose variability. The infectious dose of other recombinants was in the range between. […] On day three cells were fixed and immunostained for NS3 expression as described above. In parallel, cell viability was monitored with CellTiter™ 96 AQueous One Solution Cell Proliferation Assay (Promega, Madison, Wis. USA). The number of single infected cells was determined by automated counting of individual wells as described above.
(§2) To improve HCV treatment, much attention has been drawn to development of specific small molecule HCV inhibitors, including inhibitors of NS5A. Using the NS5A genotype recombinants, we investigated sensitivity to the NS5A inhibitor most advanced in clinical trials, BMS-790052. Treatment experiments using the specific NS5A inhibitor BMS-790052 (synthesized by Acme Bioscience, Palo Alto, Calif., USA) were conducted similar to what was described for interferon-alpha.

S52(3a) NS5A recombinant = assay type: cell-based; conditions: Hepatitis C virus
Method: as §1, §2

[2] = tested on: HK6a(6a) NS5A recombinant; assay type: cell-based; conditions: Hepatitis C virus; genotype 6a, isolate HK6a NS5A recombinant; read-out: NS5A inhibitor, EC50 (nM), original
Method: as §1, §2

[3] = tested on: H77C(1a) NS5A recombinant; assay type: cell-based; conditions: Hepatitis C virus; genotype 1a, isolate H77C NS5A recombinant; read-out: NS5A inhibitor, EC50 (nM), original
Method: as §1, §2

J4(1b) NS5A recombinant = assay type: cell-based; conditions: Hepatitis C virus
Method: as §1, §2

[4] = tested on: SA13(5a) NS5A recombinant; assay type: cell-based; conditions: Hepatitis C virus; genotype 5a, isolate SA13 NS5A recombinant; read-out: NS5A inhibitor, EC50 (nM), original
Method: as §1, §2

[5] = tested on: ED43(4a) NS5A recombinant; assay type: cell-based; conditions: Hepatitis C virus, read-out: NS5A inhibitor, EC50 (nM), original
Method: as §1, §2

[6] = tested on: QC69(7a) NS5A recombinant; assay type: cell-based; conditions: Hepatitis C virus; genotype 7a, isolate QC69 NS5A recombinant; read-out: NS5A inhibitor, EC50 (nM), original
Method: as §1, §2

J6(2a) NS5A recombinant = assay type: cell-based; conditions: Hepatitis C virus
Method: as §1, §2

J1(1a) NS5A recombinant = assay type: cell-based; conditions: Hepatitis C virus
Method: as §1, §2

DH6(1a) NS5A recombinant = assay type: cell-based; conditions: Hepatitis C virus; genotype 1a, isolate DH6 NS5A recombinant; read-out: NS5A inhibitor, EC50 (nM), original
Method: as §1, §2

TN(1a) NS5A recombinant = assay type: cell-based; conditions: Hepatitis C virus; genotype 1a, isolate TN NS5A recombinant; read-out: NS5A inhibitor, EC50 (nM), original
Method: as §1, §2

[7] = tested on: HCV-1(1a) NS5A recombinant; assay type: cell-based; conditions: Hepatitis C virus; genotype 1a, isolate HCV-1 NS5A recombinant; read-out: NS5A inhibitor, EC50 (nM), original
Method: as §1, §2

[8] = tested on: J6/JFH1 with NS5A mutation C92E; assay type: cell-based, hepatitis C virus
Method: as §1, §2
(§3) The best described resistance mutation for this drug class, change of NS5A residue 93, induced >10-fold resistance to BMS-790052 for genotype 1 replicons. We changed this residue to histidine in the NS5A genotype 1-6 recombinants; QC69(7a) naturally had histidine. In BMS-790052 treatment experiments, H77C(1a)-Y93H, JFH1(2a)-Y93H and S52(3a)-Y93H were >1000-fold, J4(1b)-Y93H, J6(2a)-Y93H and ED43(4a)-Y93H˜100-fold, and SA13(5a)-T93H and HK6a(6a)-T93H<5-fold more resistant than the respective original recombinants (Table 21). […] The presence of L31M in the J6(2a) isolate and C92E in the S52(3a) isolate corresponded to the higher resistance of these isolates. Further, the lower sensitivity of J1(1a) compared to other 1a recombinants could be caused by the histidine found at NS5A residue 30, previously associated with resistance in patients.

HK6a(6a)-T93H = assay type: cell-based, hepatitis C virus
Method: as §1, §2, §3

J4(1b)-Y93H = assay type: cell-based, hepatitis C virus
Method: as §1, §2, §3

JFH1(2a)-Y93H = assay type: cell-based, hepatitis C virus
Method: as §1, §2, §3

## COC(=O)N[C@H](C(=O)N1CCC[C@H]1c1nc(-c2ccc(-c3ccc(-c4c[nH]c([C@@H]5CCCN5C(=O)[C@@H](NC(=O)OC)C(C)C)n4)cc3)cc2)c[nH]1)C(C)C [BMS-790052]
[1]; Hepatitis C virus, JFH1(2a), NS5A mutation I37V, single experiment of three replicates, read-out: NS5A inhibitor, EC50 (nM), putative resistance mutant
  EC50: 0.17 nM
[1]; JFH1(2a) I37V vs original JFH1(2a)
  Fold resistance compared to original: 2.0 fold
JFH1(2a) NS5A (J6/JFH1)
  EC50: 0.097 nM
S52(3a) NS5A recombinant; S52(3a), read-out: EC50
  EC50: 0.9 nM
S52(3a) NS5A recombinant; genotype 3a, isolate S52 NS5A recombinant, read-out: NS5A inhibitor, EC50 (nM), original
  EC50: 0.9 nM
[2]
  EC50: 0.031 nM
[3]
  EC50: 0.026 nM
J4(1b) NS5A recombinant; J4(1b), most sensitive, read-out: EC50
  EC50: 0.009 nM
J4(1b) NS5A recombinant; genotype 1b, isolate J4 NS5A recombinant, read-out: NS5A inhibitor, EC50 (nM), original
  EC50: 0.009 nM
[4]
  EC50: 0.034 nM
[5]
  EC50: 0.017 nM
[6]
  EC50: 0.05 nM
J6(2a) NS5A recombinant; J6(2a), read-out: EC50
  EC50: 14 nM
J6(2a) NS5A recombinant; genotype 2a, isolate J6 NS5A recombinant, read-out: NS5A inhibitor, EC50 (nM), original
  EC50: 14 nM
J1(1a) NS5A recombinant; J1(1a), read-out: EC50
  EC50: 1.1 nM
J1(1a) NS5A recombinant; genotype 1a, isolate J1 NS5A recombinant, read-out: NS5A inhibitor, EC50 (nM), original
  EC50: 1.1 nM
DH6(1a) NS5A recombinant
  EC50: 0.065 nM
TN(1a) NS5A recombinant
  EC50: 0.038 nM
[7]
  EC50: 0.12 nM
[8]; Hepatitis C virus, JFH1(2a), NS5A mutation C92E, single experiment of three replicates, read-out: NS5A inhibitor, EC50 (nM), putative resistance mutant
  EC50: 14 nM
[8]; JFH1(2a) C92E vs original JFH1(2a)
  Fold resistance compared to original: 170 fold
[8]; NS5A C92E in the J6/JFH1 background
  resistance: confer resistance
HK6a(6a)-T93H; HK6a(6a) T93H vs original HK6a(6a)
  Fold resistance compared to original: 4.3 fold
HK6a(6a)-T93H; HK6a(6a)-T93H
  fold more resistant than the respective original recombinant: < 5 fold
HK6a(6a)-T93H; Hepatitis C virus, HK6a(6a), NS5A mutation T93H, read-out: NS5A inhibitor, EC50 (nM), putative resistance mutant
  EC50: 0.14 nM
J4(1b)-Y93H; Hepatitis C virus, J4(1b), NS5A mutation Y93H, read-out: NS5A inhibitor, EC50 (nM), putative resistance mutant
  EC50: 0.77 nM
J4(1b)-Y93H; J4(1b) Y93H vs original J4(1b)
  Fold resistance compared to original: 82 fold
J4(1b)-Y93H; J4(1b)-Y93H
  fold more resistant than the respective original recombinant: ~100 fold
JFH1(2a)-Y93H; Hepatitis C virus, JFH1(2a), NS5A mutation Y93H, read-out: NS5A inhibitor, EC50 (nM), putative resistance mutant
  EC50: 140 nM
JFH1(2a)-Y93H; JFH1(2a) Y93H vs original JFH1(2a)
  Fold resistance compared to original: 1600 fold
JFH1(2a)-Y93H; JFH1(2a)-Y93H
  fold more resistant than the respective original recombinant: > 1000 fold
